How the values were obtained:
Assay in all cases: two-electrode voltage clamp in Xenopus oocytes, dose-response
Format in all cases: cell-based
HarmOR13 = molecular target: T1, HarmOR13 (Helicoverpa armigera, UniProt A0A075TD52)
T1 construct: gene OR13; full-length ORF; with HarmOrco (HarmOR2)
T1 sequence (A0A075TD52 1-425): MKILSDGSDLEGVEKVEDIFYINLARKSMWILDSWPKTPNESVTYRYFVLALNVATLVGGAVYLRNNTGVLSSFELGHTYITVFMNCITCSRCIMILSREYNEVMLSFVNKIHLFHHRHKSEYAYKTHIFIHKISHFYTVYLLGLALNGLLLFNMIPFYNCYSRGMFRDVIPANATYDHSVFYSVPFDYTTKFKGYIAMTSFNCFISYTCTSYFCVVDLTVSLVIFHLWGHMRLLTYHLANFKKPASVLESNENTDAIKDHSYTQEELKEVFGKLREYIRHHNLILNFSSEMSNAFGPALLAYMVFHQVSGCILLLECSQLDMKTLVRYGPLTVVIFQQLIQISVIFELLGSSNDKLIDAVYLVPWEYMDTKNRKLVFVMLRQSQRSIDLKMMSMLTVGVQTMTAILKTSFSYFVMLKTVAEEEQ
T1 sequence (A0A075TD45 1-473 partner): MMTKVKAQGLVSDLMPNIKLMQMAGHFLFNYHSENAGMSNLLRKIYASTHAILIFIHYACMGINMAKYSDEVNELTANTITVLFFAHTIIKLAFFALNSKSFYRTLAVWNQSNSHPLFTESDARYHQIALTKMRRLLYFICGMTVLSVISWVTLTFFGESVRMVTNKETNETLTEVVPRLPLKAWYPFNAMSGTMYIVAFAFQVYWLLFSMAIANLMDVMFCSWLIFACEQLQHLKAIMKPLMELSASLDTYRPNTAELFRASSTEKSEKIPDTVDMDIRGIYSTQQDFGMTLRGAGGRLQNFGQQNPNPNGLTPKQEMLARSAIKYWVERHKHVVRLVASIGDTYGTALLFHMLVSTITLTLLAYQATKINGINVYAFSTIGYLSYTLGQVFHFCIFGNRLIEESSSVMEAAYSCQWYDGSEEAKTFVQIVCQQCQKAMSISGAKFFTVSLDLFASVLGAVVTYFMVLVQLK

HarmOR6 = molecular target: T2, HarmOR6 (Helicoverpa armigera, UniProt R4JSE3)
T2 construct: gene OR6; full-length ORF; with HarmOrco (HarmOR2)
T2 sequence (R4JSE3 1-425): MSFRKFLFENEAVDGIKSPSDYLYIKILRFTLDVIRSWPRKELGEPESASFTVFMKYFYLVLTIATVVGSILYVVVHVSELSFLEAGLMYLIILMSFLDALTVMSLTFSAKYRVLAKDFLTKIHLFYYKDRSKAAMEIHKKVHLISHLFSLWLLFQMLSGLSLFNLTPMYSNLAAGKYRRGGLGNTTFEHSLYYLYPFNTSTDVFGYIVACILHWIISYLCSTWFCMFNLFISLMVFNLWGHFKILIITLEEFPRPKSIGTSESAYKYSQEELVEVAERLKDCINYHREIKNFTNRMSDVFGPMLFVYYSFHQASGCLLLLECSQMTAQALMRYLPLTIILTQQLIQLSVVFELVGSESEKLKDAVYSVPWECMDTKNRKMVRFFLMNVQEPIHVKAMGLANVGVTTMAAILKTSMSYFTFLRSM
T2 sequence (A0A075TD45 1-473 partner): T1 sequence (A0A075TD45 1-473 partner)
Source text: two-electrode voltage clamp in Xenopus oocytes, dose-response on HarmOR6 | Dose–response curve of HarmOR6/HarmOR2 Xenopus oocytes to Z9-16:Ald. | Dose–response curve of HarmOR6/HarmOR2 Xenopus oocytes to Z9-14:Ald.

HarmOR16 = molecular target: T3, HarmOR16 (Helicoverpa armigera, UniProt C6K7B8)
T3 construct: full-length ORF; with HarmOrco (HarmOR2)
T3 sequence (C6K7B8 1-422): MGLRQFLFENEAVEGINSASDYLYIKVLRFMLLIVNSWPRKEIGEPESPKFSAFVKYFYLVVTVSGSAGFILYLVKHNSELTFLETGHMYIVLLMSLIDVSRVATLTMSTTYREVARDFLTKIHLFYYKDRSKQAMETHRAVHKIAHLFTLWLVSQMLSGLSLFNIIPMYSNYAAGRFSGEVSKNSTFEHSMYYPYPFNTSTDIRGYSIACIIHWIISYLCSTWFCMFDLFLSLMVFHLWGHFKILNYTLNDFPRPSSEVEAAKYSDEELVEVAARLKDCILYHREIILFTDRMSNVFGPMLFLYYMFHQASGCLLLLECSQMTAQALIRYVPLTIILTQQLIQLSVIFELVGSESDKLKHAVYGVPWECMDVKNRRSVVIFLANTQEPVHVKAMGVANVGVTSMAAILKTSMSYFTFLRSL
T3 sequence (A0A075TD45 1-473 partner): T1 sequence (A0A075TD45 1-473 partner)
Source text: two-electrode voltage clamp in Xenopus oocytes, dose-response on HarmOR16 | Dose–response curve of HarmOR16/HarmOR2 Xenopus oocytes to Z11-16:OH.

SMILES | EC50 (HarmOR6) | further results
CCCC/C=C\CCCCCCCCCC=O [Z11-16:Ald, (Z)-11-hexadecenal] |  | EC50 (HarmOR13): 1820 nM
CCCCCC/C=C\CCCCCCCC=O [Z9-16:Ald, (Z)-9-hexadecenal] | 3530 nM | 
CCCC/C=C\CCCCCCCCCCO [Z11-16:OH, (Z)-11-hexadecen-1-ol] |  | EC50 (HarmOR16): 299 nM
CCCC/C=C\CCCCCCCC=O [Z9-14:Ald, (Z)-9-tetradecenal] | 4340 nM | 
